Each block holds one substance with its values, some of them ahead of it. The star is where a group is joined. FITC = O=C1OC2(c3ccc(O)cc3Oc3cc(O)ccc32)c2ccc(NC(=S)*)cc21
Assays:
tubulin = tubulin mix with GTP, 30 min at 37° C., 561 nm channel
Description: Hexapeptide ‘NV’-Tubulin Interaction Study on Biotin Micropatterned Surface
Biotin micropatterned surfaces were prepared as previously described method. A flow chamber of around 5 μL was built from one biotin-patterned glass surface and one poly-L-lysine (PLL)-PEG passivated counter glass, separated by two strips of double sticky tape (Tesa). Flow chamber was equilibrated with BRB80 and incubated with β-casein for 10 min followed by washing with 20 μL BRB80 for complete removal of unbound β-casein. 100 nM neutravidin was flowed into the flow chamber and incubated for 10 min followed by removal of excess neutravidin with 20 μL BRB80. […] Then, the flow chamber was filled with 18.5 μM tubulin mix (80:20 unlabeled tubulin and Alexa568 tubulin) in BRB80 supplemented with 3 mM GTP, 10 mM MgCl2, and an oxygen scavenger system (50 mM glucose, 1 mg mL^−1 glucose oxidase, and 0.5 mg mL^−1 catalase) on an ice cold metal block and placed to the TIRF microscope at 37° C. Then flow chamber was imaged using an IX-81 total internal reflection fluorescence (TIRF) microscope (Olympus) with a 60×TIRFM objective (Olympus; Hamburg, Germany) and an Andor iXon3 897 Camera. Control experiment was performed, following previously described method without immobilizing ‘Bio-NV’ on biotin micropatterned surface.

[1] = test system: neuronally differentiated PC12 cells; assay: Neuroprotection against anti-NGF toxicity (NGF deprivation), intact nuclear counting; assay type: cell-based, rat; conditions: higher concentrations of NV
Description: On the fifth day they were treated overnight with anti-NGF along with different doses of inhibitor NV (FIG. 4d). […] The cells were observed under the microscope on the day following treatment; survival was assessed by intact nuclear counting assay (FIG. 4d).
Rat pheochromocytoma cells (PC12) cells were cultured as described previously (ESI) in RPMI medium supplemented with 10% heat-inactivated horse serum (HS) and 5% heat-inactivated fetal bovine serum. Neuronal differentiation of these cells was induced by NGF (100 ng/mL) in medium containing 1% horse serum for 6 days before the treatment, as previously described.
The cell viability was checked by the intact nuclear counting method. This assay was performed as described previously. In brief, a detergent containing the buffer that dissolved only the plasma membrane was added to the cells, the nuclear membrane thus remained intact. The intact nuclei were then counted on a haemocytometer under a light microscope. The number of live cells was expressed as percentage of the total cell population.

tau = conditions: previous study; cited from earlier work
amyloid beta = conditions: previous study; cited from earlier work
polymerized microtubules = assay: FITC-NV binding with microtubule at tubulin polymerization; conditions: FITC-NV during polymerization of alexa-568 labeled tubulin with GTP
Description: Hexapeptide NV Binding with Microtubule at Tubulin Polymerization
Mixture 1: Alexa Fluor 568-labeled tubulin (0.5 μL, 15 mg mL^−1, 65% labelling ratio), Tubulin (2 μL, 20 mg mL^−1), FITC-NV (0.5 μL, 1 mM), GTP (0.2 μL, […]) and BRB80 (46.8 μL; 80 mM PIPES, 1 mM EGTA; 1 mM MgCl2, pH adjusted to 6.8 by using concentrated KOH solution) were mixed on ice. The mixture was incubated for 30 min on 37° C. water bath.
Mixture 2: Taxol (0.4 μL, 1 mM) and BRB80 (180 μL) were mixed.
Final Mixture: After 30 min incubation 50 μL warmed mixture 2 was added into mixture 1. Then this mixture was separated in a table top centrifuge (7 min, 12000 rpm, Eppendorf 5810R bench-top centrifuge, rotor type F-34-6-38). The coloured pellet was resuspended in warm mixture 2. 10 μL resuspended solution of microtubule was placed on glass cover slip and imaged under inverted fluorescence microscope (NIKON Ti-U) in 40× magnification using ANDOR iXON3 camera.

Substance: Biotin-NAPVSIPQ-NH2 [Biotin-NV]
- binding of tubulin to immobilized Biotin-NV on micropatterns (tubulin): localized binding of tubulin

Substance: H-NAVSIQ-NH2 [NV, NH2-NAVSIQ-NH2]
- toxicity to control cells [1]: showed toxicity to control cells

Substance: NH2-NAPVSIPQ-NH2 [NQ]
- inhibition of tau hyper phosphorylation in vivo (tau): inhibit tau hyper phosphorylation in vivo
- inhibition of amyloid beta fibrillation in vitro (amyloid beta): inhibits amyloid beta fibrillation in vitro

- binding with polymerized microtubules (polymerized microtubules): binds with polymerized microtubules
Substance: {FITC}-NAVSIQ-NH2 [FITC-NV]

— patent US10100082B2, “Hexapeptide for neuroprotection against a β toxicity” (Council of Scientific and Industrial Research, priority 2016, dated 2018)
